# Results reported in patent US10166203B2, “Pharmaceutical composition for treating cancer including 2-methoxy-4-(3-(4-methoxyphenyl)prop-1-en-1-yl)phenol as active ingredient” (CHUNGBUK NATIONAL UNIVERSITY INDUSTRY-ACADEMIC COOPERATION …, priority 2015, dated 2019).
# How the values were obtained:
# [1] = system: SW480 xenografted mouse; assay: Anticancer activity in a colon cancer xenograft animal model; format: in vivo; settings: twice a week for 3 weeks, nude mice
# [2] = system: SW480 cells; assay: Western blot analysis of cell cycle regulatory and apoptosis signal proteins; format: cell-based, human
# Protocol: Lysates, cytosolic and nuclear extracts of whole cells were obtained. SDS-PAGE and western blot analysis were performed as described in published documents 1 and 2 [1, 2]. Put briefly, the cells of 5×10^5 cells/well were inoculated in 6-well plates and cultured for 24 hours. Cells were then treated with MMPP or DMSO for 24 hours. The treated cells were washed twice with PBS and lysed. Proteins from the lysed cells were separated on 10 to 15% SDS-PAGE. Proteins were transferred to a PVDF membrane and the PVDF membrane was blocked with TBS/T-buffer including 5% defatted milk for 2.5 hours at room temperature. The membrane to which the proteins are transferred was analyzed by using a mouse monoclonal antibody for as a primary antibody. Protein expression was visualized using a chemiluminescence reagent (Amersham Pharmacia Biotech, Inc., Buckinghamshire, UK) and measured using a in which a CCD camera (Fusion-FX, Fisher BioTech, Ltd., Wembley, Australia) is installed.
# 2. Effect of MMPP on Cell Cycle Regulatory Signal and Apoptosis Signal In order to investigate the basic mechanism of the growth inhibitory effect of colon cancer cells of MMPP, it was examined whether MMPP treatment affects cell cycle regulation and apoptosis signals in SW480 cells.
# [3] = target: T1, STAT3 (Homo sapiens, UniProt P40763); assay: DNA binding activity of STAT3 using EMSA; format: cell-based; settings: SW480 cells exposed for 1 hour
# T1 construct: endogenous in cells; host or cells: SW480 cells (nuclear extract)
# T1 sequence (P40763 whole entry): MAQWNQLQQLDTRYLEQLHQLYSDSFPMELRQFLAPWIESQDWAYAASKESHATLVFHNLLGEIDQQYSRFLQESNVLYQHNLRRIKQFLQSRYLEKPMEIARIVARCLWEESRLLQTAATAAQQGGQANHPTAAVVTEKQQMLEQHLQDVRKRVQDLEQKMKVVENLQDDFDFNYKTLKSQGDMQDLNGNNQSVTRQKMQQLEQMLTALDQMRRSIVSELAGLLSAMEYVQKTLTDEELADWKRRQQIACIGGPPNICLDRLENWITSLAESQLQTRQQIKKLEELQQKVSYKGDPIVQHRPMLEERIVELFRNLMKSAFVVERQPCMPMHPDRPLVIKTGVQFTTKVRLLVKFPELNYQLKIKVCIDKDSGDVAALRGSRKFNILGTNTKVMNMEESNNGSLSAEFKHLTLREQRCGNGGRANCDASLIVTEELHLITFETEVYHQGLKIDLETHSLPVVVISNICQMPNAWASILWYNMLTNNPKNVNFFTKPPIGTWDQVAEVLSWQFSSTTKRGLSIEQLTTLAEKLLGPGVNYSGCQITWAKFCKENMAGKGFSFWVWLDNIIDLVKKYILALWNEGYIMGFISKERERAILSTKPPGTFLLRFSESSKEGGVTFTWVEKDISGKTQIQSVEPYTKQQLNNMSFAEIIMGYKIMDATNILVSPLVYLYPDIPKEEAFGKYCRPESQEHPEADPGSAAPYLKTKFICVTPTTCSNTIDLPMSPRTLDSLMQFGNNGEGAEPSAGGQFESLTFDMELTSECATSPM
# Protocol: The DNA binding activity of STAT3 was measured using an electrophoretic mobility shift assay (EMSA) as described in document 1. Put briefly, cells were cultured in a 100 mm culture dish at 37° C. for 24 hours and then treated with MMPP or DMSO. After incubation for 24 hours, the cells were washed three times with cold PBS and nuclear extracts for EMSA experiments were prepared. Relative thickness of the DNA-protein binding band was quantified using Lab Works 4.0 software (UVP Inc., Upland, Calif., USA) after scanning with densitometry.
# In order to determine whether MMPP reacted with STAT3 to inhibit DNA binding activity of STAT3, MMPP was exposed to SW480 cells for 1 hour and the DNA binding activity of STAT3 was measured.
# [4] = system: SW480 cells; assay: Cell viability analysis using MTT assay; format: cell-based, human
# Protocol: The human colon cancer cell line, SW480, was purchased from the American Type Culture Collection (Manassas, Va., USA) and cultured in an RPMI (Roswell Park Memorial Institute)-1640 medium (Gibco-BRL) to which 10% heat-inactivated fetal bovine serum (FBS) and penicillin/streptomycin at 37° C. humidified atmosphere of 5% CO2. The cells were cultured in a 100 mm culture dish at a concentration of 4×10^5 cells for experiments.
# The influence of 2-methoxy-4-(3-(4-methoxyphenyl)prop-1-en-1-yl)phenol (MMPP) on the viability of cells was confirmed by colorimetric and metabolic activity assay using MTT [3-(4,5-dimethylthiazol-2-yl)-2,5-diphenyltetrazolium bromide]. Put briefly, cells were inoculated on 96-well plates at 1×10^4 cells/well and cultured for 24 hours. Cells were treated with 2.5 to 10 μg/ml MMPP or DMSO (dimethyl sulfoxide), a solvent for MMPP. After culturing for 24 hours, the medium including MMPP was removed and replaced with 100 μl of fresh medium. After culturing for 1.5 hours, medium including MTT was removed and 200 μl DMSO was added to each well. The plate was then agitated at a weak intensity until the color reaction of the plate became uniform. Colorimetric evaluation was performed using a microplate reader at 540 nm.
# The inhibitory effect of MMPP on the growth of human colon cancer cells was examined using SW480 cells.
structure (smiles),measurement,setting,value
"COc1ccc(C/C=C/c2ccc(O)c(OC)c2)cc1 [MMPP, 2-methoxy-4-(3-(4-methoxyphenyl)propyl-1-en-1-yl)phenol]",Tumor volume compared to the control group,[1]; 2.5 mg/kg intraperitoneal,65%
same,Tumor volume compared to the control group,[1]; 5 mg/kg intraperitoneal,35%
same,expression of cell cycle regulatory signal proteins,[2],effectively reduced the expression
same,"expression of pro-apoptotic proteins cleaved caspase-3, cleaved caspase-8 and Bax",[2],increased the expression
same,expression of the anti-apoptotic protein Bcl-2,[2],reduced the expression
same,DNA binding activity of STAT3,[3],effectively inhibited DNA binding activity of STAT3
same,cell density compared to the control group,[4],significantly reduced cell density
same,IC50,"[4]; Homo sapiens, MMPP 2.5 to 10 μg/ml, treated for 24 hours, MTT, read-out: IC50 value, inhibition of the growth of SW480 cells",5.9 µg/mL
